{"source": "ChEMBL document CHEMBL1821719", "about": "“2,7-disubstituted-pyrrolo[2,1-f][1,2,4]triazines: new variant of an old template and application to the discovery of anaplastic lymphoma kinase (ALK) inhibitors with in vivo antitumor activity” (J Med Chem, 2011)", "key": {"Cytochrome P450 3A4": {"target": "Cytochrome P450 3A4 (Homo sapiens, UniProt P08684)", "sequence (P08684 whole entry)": "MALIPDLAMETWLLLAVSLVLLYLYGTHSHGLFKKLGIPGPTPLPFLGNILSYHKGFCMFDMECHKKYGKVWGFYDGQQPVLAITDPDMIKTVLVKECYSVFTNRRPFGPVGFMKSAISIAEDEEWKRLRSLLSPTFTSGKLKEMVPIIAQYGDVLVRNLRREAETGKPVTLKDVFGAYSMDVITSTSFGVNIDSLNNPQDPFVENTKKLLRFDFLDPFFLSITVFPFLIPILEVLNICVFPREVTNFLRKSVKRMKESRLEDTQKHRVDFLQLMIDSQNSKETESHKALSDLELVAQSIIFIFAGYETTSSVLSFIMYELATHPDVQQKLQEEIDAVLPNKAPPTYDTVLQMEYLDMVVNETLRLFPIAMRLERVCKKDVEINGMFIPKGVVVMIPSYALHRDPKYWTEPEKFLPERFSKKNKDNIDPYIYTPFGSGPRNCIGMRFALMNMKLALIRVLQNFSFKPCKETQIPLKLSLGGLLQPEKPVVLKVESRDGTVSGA", "assay": "Inhibition of CYP3A4", "assay_type": "ADME"}, "[1]": {"target": "ALK tyrosine kinase receptor (Homo sapiens, UniProt Q9UM73)", "sequence (Q9UM73 whole entry)": "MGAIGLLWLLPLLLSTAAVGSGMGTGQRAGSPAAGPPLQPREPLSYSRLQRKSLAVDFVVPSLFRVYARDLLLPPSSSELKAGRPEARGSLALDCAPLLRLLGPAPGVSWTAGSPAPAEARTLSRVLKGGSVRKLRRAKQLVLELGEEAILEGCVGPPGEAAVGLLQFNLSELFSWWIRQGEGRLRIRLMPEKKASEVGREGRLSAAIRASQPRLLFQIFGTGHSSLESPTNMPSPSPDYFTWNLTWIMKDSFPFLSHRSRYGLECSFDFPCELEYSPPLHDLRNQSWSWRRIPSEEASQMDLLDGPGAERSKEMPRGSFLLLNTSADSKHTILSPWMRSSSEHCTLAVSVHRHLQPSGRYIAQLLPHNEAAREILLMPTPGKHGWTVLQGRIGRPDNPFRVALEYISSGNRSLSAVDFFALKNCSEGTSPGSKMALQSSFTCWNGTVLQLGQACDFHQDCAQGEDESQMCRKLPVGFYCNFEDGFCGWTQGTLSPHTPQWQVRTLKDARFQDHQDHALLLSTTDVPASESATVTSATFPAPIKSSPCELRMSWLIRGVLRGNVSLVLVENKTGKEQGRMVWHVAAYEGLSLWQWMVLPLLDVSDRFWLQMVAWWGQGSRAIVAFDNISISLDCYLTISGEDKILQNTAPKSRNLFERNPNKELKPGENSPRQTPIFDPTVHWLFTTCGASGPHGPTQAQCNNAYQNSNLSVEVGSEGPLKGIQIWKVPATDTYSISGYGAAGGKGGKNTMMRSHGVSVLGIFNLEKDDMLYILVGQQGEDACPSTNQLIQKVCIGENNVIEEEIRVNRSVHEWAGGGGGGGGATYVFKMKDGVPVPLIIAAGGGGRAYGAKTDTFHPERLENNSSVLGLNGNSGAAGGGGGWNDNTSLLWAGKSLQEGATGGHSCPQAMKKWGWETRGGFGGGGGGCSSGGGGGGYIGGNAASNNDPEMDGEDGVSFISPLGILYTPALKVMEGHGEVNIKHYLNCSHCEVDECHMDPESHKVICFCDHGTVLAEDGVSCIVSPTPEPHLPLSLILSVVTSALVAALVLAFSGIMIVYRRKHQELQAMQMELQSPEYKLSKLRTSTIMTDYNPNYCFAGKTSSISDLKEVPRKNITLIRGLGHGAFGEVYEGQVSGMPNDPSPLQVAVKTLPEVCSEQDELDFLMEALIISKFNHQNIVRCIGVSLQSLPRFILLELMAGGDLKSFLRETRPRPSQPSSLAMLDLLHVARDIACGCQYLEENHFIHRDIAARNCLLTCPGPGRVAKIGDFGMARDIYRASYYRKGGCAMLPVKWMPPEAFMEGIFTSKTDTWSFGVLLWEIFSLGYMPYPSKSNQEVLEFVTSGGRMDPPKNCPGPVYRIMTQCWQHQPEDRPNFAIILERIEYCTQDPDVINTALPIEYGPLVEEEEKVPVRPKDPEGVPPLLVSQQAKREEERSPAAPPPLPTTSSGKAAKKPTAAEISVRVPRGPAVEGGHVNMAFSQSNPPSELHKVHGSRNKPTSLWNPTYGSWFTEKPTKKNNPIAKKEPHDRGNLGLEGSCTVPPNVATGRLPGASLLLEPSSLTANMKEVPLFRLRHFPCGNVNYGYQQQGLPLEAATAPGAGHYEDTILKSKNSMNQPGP", "assay": "Inhibition of human recombinant ALK assessed as phosphorylated product using PLC-gamma/GST substrate by modified ELISA method"}, "[2]": {"assay": "Half-life in mouse liver microsomes", "assay_type": "ADME, Microsome"}, "[3]": {"assay": "Half-life in human liver microsomes", "assay_type": "ADME, Microsome"}, "Cytochrome P450 2D6": {"target": "Cytochrome P450 2D6 (Homo sapiens, UniProt P10635)", "sequence (P10635 whole entry)": "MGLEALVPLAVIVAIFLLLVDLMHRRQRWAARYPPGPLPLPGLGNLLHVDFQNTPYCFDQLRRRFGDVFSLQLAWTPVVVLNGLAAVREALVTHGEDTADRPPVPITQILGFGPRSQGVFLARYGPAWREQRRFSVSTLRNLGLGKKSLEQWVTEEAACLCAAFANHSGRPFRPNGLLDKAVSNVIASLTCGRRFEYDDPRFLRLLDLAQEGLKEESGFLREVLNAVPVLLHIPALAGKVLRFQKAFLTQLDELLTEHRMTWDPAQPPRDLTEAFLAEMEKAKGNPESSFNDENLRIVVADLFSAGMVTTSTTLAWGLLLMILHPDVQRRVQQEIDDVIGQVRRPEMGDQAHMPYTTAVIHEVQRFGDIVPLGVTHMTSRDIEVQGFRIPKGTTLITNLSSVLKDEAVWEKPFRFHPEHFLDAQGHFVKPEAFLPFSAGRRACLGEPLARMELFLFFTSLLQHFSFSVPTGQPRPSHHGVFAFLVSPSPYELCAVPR", "assay": "Inhibition of CYP2D6", "assay_type": "ADME"}, "[4]": {"assay": "Half-life in rat liver microsomes", "assay_type": "ADME, Microsome"}, "Cytochrome P450 2C9": {"target": "Cytochrome P450 2C9 (Homo sapiens, UniProt P11712)", "sequence (P11712 whole entry)": "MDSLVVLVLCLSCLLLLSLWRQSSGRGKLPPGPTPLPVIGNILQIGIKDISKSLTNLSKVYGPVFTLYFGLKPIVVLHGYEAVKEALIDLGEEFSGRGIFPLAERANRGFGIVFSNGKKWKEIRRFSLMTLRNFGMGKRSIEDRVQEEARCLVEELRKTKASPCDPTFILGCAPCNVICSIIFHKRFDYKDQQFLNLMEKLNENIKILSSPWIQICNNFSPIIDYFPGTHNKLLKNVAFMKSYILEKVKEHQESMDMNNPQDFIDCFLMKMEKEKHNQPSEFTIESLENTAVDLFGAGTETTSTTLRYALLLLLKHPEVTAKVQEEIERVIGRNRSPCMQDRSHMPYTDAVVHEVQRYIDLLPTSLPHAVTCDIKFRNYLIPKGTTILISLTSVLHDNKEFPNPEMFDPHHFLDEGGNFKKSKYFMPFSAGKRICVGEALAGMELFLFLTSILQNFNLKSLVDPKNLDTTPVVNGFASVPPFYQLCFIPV", "assay": "Inhibition of CYP2C9", "assay_type": "ADME"}, "Insulin receptor": {"target": "Insulin receptor (Homo sapiens, UniProt P06213)", "sequence (P06213 28-758 limits assumed)": "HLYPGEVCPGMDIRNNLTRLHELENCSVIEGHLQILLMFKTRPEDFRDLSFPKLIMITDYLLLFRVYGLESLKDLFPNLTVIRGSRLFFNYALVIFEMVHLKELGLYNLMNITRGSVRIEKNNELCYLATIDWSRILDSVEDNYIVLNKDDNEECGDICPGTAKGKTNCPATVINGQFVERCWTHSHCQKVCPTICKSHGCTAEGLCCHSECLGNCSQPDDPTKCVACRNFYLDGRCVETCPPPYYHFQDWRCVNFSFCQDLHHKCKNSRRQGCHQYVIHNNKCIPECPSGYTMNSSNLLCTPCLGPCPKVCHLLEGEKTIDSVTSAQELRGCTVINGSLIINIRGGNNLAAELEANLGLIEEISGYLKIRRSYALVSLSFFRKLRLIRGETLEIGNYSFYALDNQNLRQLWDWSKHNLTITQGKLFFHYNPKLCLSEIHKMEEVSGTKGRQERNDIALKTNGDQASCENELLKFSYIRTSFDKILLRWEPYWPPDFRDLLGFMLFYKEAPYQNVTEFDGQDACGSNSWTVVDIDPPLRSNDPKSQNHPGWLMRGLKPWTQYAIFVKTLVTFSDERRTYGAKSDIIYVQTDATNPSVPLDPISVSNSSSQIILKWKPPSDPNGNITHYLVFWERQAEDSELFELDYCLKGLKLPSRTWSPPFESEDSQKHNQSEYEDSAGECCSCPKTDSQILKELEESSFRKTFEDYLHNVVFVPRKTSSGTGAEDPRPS", "sequence (P06213 763-1382 limits assumed)": "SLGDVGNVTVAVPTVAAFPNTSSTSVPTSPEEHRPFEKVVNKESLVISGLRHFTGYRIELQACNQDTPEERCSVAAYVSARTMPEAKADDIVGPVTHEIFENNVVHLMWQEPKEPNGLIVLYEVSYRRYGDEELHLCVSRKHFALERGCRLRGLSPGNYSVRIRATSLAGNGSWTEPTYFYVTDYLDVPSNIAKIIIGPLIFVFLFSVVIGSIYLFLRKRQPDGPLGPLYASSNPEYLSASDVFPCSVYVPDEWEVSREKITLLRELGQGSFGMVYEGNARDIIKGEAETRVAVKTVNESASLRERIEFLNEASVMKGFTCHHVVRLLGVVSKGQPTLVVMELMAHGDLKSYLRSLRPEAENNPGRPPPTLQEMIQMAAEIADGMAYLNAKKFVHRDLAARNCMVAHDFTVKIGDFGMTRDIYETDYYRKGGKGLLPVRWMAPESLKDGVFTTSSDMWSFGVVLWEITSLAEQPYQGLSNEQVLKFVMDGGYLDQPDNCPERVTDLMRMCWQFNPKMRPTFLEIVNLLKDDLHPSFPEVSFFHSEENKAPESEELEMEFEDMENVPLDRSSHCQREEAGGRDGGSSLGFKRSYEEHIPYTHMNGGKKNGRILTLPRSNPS", "assay": "Inhibition of IR"}, "Cytochrome P450 1A2": {"target": "T1, Cytochrome P450 1A2 (Homo sapiens, UniProt P05177)", "T1 sequence (P05177 whole entry)": "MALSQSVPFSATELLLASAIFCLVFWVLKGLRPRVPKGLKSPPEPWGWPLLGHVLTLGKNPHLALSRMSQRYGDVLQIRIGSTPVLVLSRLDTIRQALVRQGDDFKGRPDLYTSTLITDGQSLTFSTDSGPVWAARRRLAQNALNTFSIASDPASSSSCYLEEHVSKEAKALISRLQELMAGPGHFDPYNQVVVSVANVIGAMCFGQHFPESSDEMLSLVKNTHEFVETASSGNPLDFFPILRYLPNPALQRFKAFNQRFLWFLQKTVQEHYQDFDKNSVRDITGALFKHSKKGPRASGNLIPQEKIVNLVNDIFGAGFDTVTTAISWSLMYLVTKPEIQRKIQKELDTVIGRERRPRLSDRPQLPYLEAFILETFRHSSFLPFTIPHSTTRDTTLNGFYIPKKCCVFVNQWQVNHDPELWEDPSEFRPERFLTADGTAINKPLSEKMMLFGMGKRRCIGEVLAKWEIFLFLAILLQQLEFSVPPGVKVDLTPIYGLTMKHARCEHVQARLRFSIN", "assay": "Inhibition of CYP1A2", "assay_type": "ADME"}, "Cytochrome P450 2C19": {"target": "Cytochrome P450 2C19 (Homo sapiens, UniProt P33261)", "sequence (P33261 whole entry)": "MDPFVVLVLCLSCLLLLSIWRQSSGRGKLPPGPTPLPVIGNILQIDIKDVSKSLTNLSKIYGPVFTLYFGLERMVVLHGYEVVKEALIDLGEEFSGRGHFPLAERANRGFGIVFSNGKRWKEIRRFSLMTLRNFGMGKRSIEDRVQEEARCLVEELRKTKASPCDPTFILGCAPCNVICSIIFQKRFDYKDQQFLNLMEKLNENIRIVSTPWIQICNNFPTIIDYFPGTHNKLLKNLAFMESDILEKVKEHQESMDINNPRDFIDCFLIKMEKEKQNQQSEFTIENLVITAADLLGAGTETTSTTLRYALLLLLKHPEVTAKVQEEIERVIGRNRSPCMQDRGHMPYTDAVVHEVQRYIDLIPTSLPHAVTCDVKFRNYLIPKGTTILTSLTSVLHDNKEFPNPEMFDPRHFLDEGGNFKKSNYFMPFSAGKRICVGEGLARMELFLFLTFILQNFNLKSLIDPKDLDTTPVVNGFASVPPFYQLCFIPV", "assay": "Inhibition of CYP2C19", "assay_type": "ADME"}, "[5]": {"assay": "Oral bioavailability in Sprague-Dawley rat", "assay_type": "ADME, organism-based", "settings": "in vivo"}, "[6]": {"assay": "Half-life in iv dosed Sprague-Dawley rat", "assay_type": "ADME, organism-based", "settings": "in vivo"}, "[7]": {"assay": "Clearance in iv dosed Sprague-Dawley rat", "assay_type": "ADME, organism-based", "settings": "in vivo"}}}
{"smiles": "CN1CCN(c2ccc(Nc3ncc4ccc(-c5ccccc5N(C)S(C)(=O)=O)n4n3)cc2)CC1", "values": [{"measurement": "IC50", "setting": "Cytochrome P450 3A4", "value": 14600, "unit": "nM"}, {"measurement": "IC50", "setting": "[1]", "value": 7, "unit": "nM"}, {"measurement": "half-life", "setting": "[2]", "value": 30, "unit": "min"}, {"measurement": "half-life", "setting": "[3]", "value": 40, "unit": "min"}, {"measurement": "IC50", "setting": "Cytochrome P450 2D6", "value": "> 30000", "unit": "nM"}, {"measurement": "half-life", "setting": "[4]", "value": 21, "unit": "min"}, {"measurement": "IC50", "setting": "Cytochrome P450 2C9", "value": "> 30000", "unit": "nM"}, {"measurement": "IC50", "setting": "Insulin receptor", "value": 366, "unit": "nM"}, {"measurement": "IC50", "setting": "Cytochrome P450 1A2", "value": "> 30000", "unit": "nM"}, {"measurement": "IC50", "setting": "Cytochrome P450 2C19", "value": "> 30000", "unit": "nM"}]}
{"smiles": "COc1cc(Nc2ncc3ccc(-c4ccccc4)n3n2)cc(OC)c1OC", "values": [{"measurement": "IC50", "setting": "[1]", "value": 212, "unit": "nM"}, {"measurement": "IC50", "setting": "Insulin receptor", "value": 295, "unit": "nM"}]}
{"smiles": "c1ccc(-c2ccc3cnc(Nc4ccc(N5CCOCC5)cc4)nn23)cc1", "values": [{"measurement": "IC50", "setting": "[1]", "value": "> 2000", "unit": "nM"}, {"measurement": "IC50", "setting": "Insulin receptor", "value": 194, "unit": "nM"}]}
{"smiles": "CN1CCN(c2ccc(Nc3ncc4ccc(-c5ccccc5)n4n3)cc2)CC1", "values": [{"measurement": "IC50", "setting": "[1]", "value": 48, "unit": "nM"}, {"measurement": "IC50", "setting": "Insulin receptor", "value": 35, "unit": "nM"}]}
{"smiles": "COCCN1CCc2ccc(Nc3ncc4ccc(-c5ccccc5)n4n3)cc2CC1", "values": [{"measurement": "IC50", "setting": "[1]", "value": 38, "unit": "nM"}, {"measurement": "IC50", "setting": "Insulin receptor", "value": 19, "unit": "nM"}]}
{"smiles": "COc1ccccc1-c1ccc2cnc(Nc3ccc(N4CCN(C)CC4)cc3)nn12", "values": [{"measurement": "IC50", "setting": "Cytochrome P450 3A4", "value": 9400, "unit": "nM"}, {"measurement": "IC50", "setting": "[1]", "value": 20, "unit": "nM"}, {"measurement": "bioavailability", "setting": "[5]", "value": 4, "unit": "%"}, {"measurement": "half-life", "setting": "[2]", "value": 8, "unit": "min"}, {"measurement": "half-life", "setting": "[3]", "value": 40, "unit": "min"}, {"measurement": "IC50", "setting": "Cytochrome P450 2D6", "value": "> 30000", "unit": "nM"}, {"measurement": "half-life", "setting": "[4]", "value": 14, "unit": "min"}, {"measurement": "half-life", "setting": "[6]", "value": 30, "unit": "min"}, {"measurement": "IC50", "setting": "Cytochrome P450 2C9", "value": "> 30000", "unit": "nM"}, {"measurement": "IC50", "setting": "Insulin receptor", "value": 123, "unit": "nM"}, {"measurement": "IC50", "setting": "Cytochrome P450 1A2", "value": "> 30000", "unit": "nM"}, {"measurement": "IC50", "setting": "Cytochrome P450 2C19", "value": "> 30000", "unit": "nM"}, {"measurement": "clearance", "setting": "[7]", "value": 60, "unit": "mL/min/kg"}]}
{"smiles": "CN1CCN(c2ccc(Nc3ncc4ccc(-c5ccccc5C(N)=O)n4n3)cc2)CC1", "values": [{"measurement": "IC50", "setting": "[1]", "value": 726, "unit": "nM"}, {"measurement": "IC50", "setting": "Insulin receptor", "value": 326, "unit": "nM"}]}
{"smiles": "CN1CCN(c2ccc(Nc3ncc4ccc(-c5ccccc5S(C)(=O)=O)n4n3)cc2)CC1", "values": [{"measurement": "IC50", "setting": "[1]", "value": 883, "unit": "nM"}, {"measurement": "IC50", "setting": "Insulin receptor", "value": "> 2000", "unit": "nM"}]}
